From US7655392B2, “Quenching methods for red blood cell inactivation process” (priority 2004, dated 2010)
Values joined by “and” are separate entries in the source; they are usually repeats but may differ in a detail not shown here. Identical values can stand only once. Like-named read-outs stand apart in the source and are kept apart here.

System: red blood cells
Assay type: cell-based
Method: In another assay, the rabbit polyclonal sera may be reacted with treated red blood cells. After washing off unbound antibody, a FITC labeled goat anti-rabbit Fab′2 fragment (anti H+L chains, Caltag) is added. The binding of FITC label to the red blood cells correlates with the amount of acridine bound to the red blood cell surface, and is assessed by FACScan™ analysis (Becton, Dickinson and Co., NJ). The relative modification of the red blood cells is determined from the FACScan™ mean fluorescence value.
A 20 mL sample of leukoreduced whole blood (Blood Source, Sacramento, Calif.) was centrifuged at 4,100×g for 5 minutes at room temperature in each of four 50 mL centrifuge tubes. The supernatant was removed from each tube to provide red cell concentrate (RCC). […] For each washed RCC, cells were resuspended in 5 mL of the solution used for washing. This is now referred to as the RBC test sample. […] These samples were incubated for 20 hours at room temperature. After incubation, the RBC were washed in BBS (Blood Bank Saline, 0.9% saline, unbuffered, Fisher Scientific) and were diluted to a final hematocrit of 4%. A 25 μL aliquot of each was mixed with 15 μL of rabbit polyclonal anti-acridine sera diluted 1:100 in BBS and the mixture was incubated at 37° C. for 30 minutes. The cells were subsequently washed with 1.5 mL BBS. After washing was complete, the cells were mixed with 50 μL of FITC labeled goat anti-rabbit Fab′2 fragment (1:64 dilution in BBS) and incubated at 37° C. for 30 minutes. […] Note that the quenching improves as glutathione is neutralized with increasing amounts of sodium hydroxide.
The FACScan analysis of the binding of rabbit anti-acridine sera to treated red cells was used to assess a variety of quenching conditions. […] The tables represent data from two different experiments, each with samples treated under standard conditions or with 20 mM neutralized glutathione. […] The data within an experiment provides the relative efficacy of the various treatments. Because the assay may depend on the lot of red blood cells used, the absolute values of mean fluorescence may vary from one study to the next, such that relative values should only be compared within a given experiment. […] Neutralized glutathione at 20 mM results in close to background levels.
An untreated control sample as well as a standard sample (co-addition of 2 mM acidic glutathione with 0.2 mM PIC-1) were also assessed.
Full units of red cell concentrates (Interstate Blood Bank, Inc., Memphis, Tenn.) were leukoreduced. A volume of 200 mL of this RCC (80% hematocrit) was mixed with 94 mL of Erythrosol or 100 mL of Adsol (Baxter Healthcare Corp., Deerfield, Ill.) as control (unit 1). A volume of 20 mL 8% dextrose was used to dissolve PIC-1 (mg) and acid glutathione (mg) and added to one unit to provide 0.2 mM PIC-1 and 2 mM glutathione (unit 2). […] For the glutathione, 1.2 mL of 10 N NaOH was added (2 equivalents). The PIC-1 was mixed with the unit, followed 1 minute later (unit 3) or 5 minutes later (unit 4) by glutathione. For unit 5, neutralized glutathione was mixed first, followed 10 minutes later by the PIC-1. […] All units were mixed by grasping the ends of the blood bag and mixing in a FIG. 8 motion 30 times. These were then incubated at room temperature for 20 hours total. A compound adsorption device (CAD), comprising a polymeric resin contained within a mesh pouch, was used for all but the control sample. This device is intended to remove residual PIC-1, PIC-1 breakdown products, and glutathione from the samples. Samples were incubated for 8 hours, then transferred to a second blood bag containing the CAD and incubated for an additional 12 hours. Following the room temperature incubation, samples were transferred to a refrigerator (4° C.) and stored up to 43 days.

O=C(CCNc1c2ccccc2nc2ccccc12)OCCN(CCCl)CCCl [PIC-1]
mean fluorescence (16C day 14, unit 2: standard 0.2 mM PIC-1+2 mM GSH): 135.7 | mean fluorescence (16C day 14, unit 3: 0.2 mM PIC-1, 1' delay, 20 mM GSH+2 eq base): 4.09 | mean fluorescence (16C day 14, unit 4: 0.2 mM PIC-1, 5' delay, 20 mM GSH+2 eq base): 8.41 | mean fluorescence (16C day 14, unit 5: 20 mM GSH+2 eq base, 10' delay, 0.2 mM PIC-1): 3.29 | mean fluorescence (16C day 22, unit 2: standard 0.2 mM PIC-1+2 mM GSH): 90.8 | mean fluorescence (16C day 22, unit 3: 0.2 mM PIC-1, 1' delay, 20 mM GSH+2 eq base): 2.61 | mean fluorescence (16C day 22, unit 4: 0.2 mM PIC-1, 5' delay, 20 mM GSH+2 eq base): 4.46 | mean fluorescence (16C day 22, unit 5: 20 mM GSH+2 eq base, 10' delay, 0.2 mM PIC-1): 2.12 | mean fluorescence (16C day 28, unit 2: standard 0.2 mM PIC-1+2 mM GSH): 128.7 | mean fluorescence (16C day 28, unit 3: 0.2 mM PIC-1, 1' delay, 20 mM GSH+2 eq base): 2.6 | mean fluorescence (16C day 28, unit 4: 0.2 mM PIC-1, 5' delay, 20 mM GSH+2 eq base): 5.69 | mean fluorescence (16C day 28, unit 5: 20 mM GSH+2 eq base, 10' delay, 0.2 mM PIC-1): 2.83 | mean fluorescence (16C day 35, unit 2: standard 0.2 mM PIC-1+2 mM GSH): 153.4 | mean fluorescence (16C day 35, unit 3: 0.2 mM PIC-1, 1' delay, 20 mM GSH+2 eq base): 2.74 | mean fluorescence (16C day 35, unit 4: 0.2 mM PIC-1, 5' delay, 20 mM GSH+2 eq base): 6.71 | mean fluorescence (16C day 35, unit 5: 20 mM GSH+2 eq base, 10' delay, 0.2 mM PIC-1): 2.58 | mean fluorescence (16C day 43, unit 2: standard 0.2 mM PIC-1+2 mM GSH): 136.1 | mean fluorescence (16C day 43, unit 3: 0.2 mM PIC-1, 1' delay, 20 mM GSH+2 eq base): 2.43 | mean fluorescence (16C day 43, unit 4: 0.2 mM PIC-1, 5' delay, 20 mM GSH+2 eq base): 4.51 | mean fluorescence (16C day 43, unit 5: 20 mM GSH+2 eq base, 10' delay, 0.2 mM PIC-1): 2.46 | Mean fluorescence intensity (RBC CHES pH 9 3x wash, 0.2 mM PIC-1, 2 mM GSH): 12.1 | Mean fluorescence intensity (RBC CHES pH 9 3x wash, 0.2 mM PIC-1, 20 mM GSH+0.9 eq NaOH): 3.9 | Mean fluorescence intensity (RBC CHES pH 9 3x wash, 0.2 mM PIC-1, 20 mM GSH+1.5 eq NaOH): 1.9 | Mean fluorescence intensity (RBC CHES pH 9 3x wash, 0.2 mM PIC-1, 20 mM GSH+2 eq NaOH): 1.9 | Mean fluorescence intensity (RBC Erythrosol pH 7.3 3x wash, 0.2 mM PIC-1, 2 mM GSH): 199 | Mean fluorescence intensity (RBC Erythrosol pH 7.3 3x wash, 0.2 mM PIC-1, 20 mM GSH+0.9 eq NaOH): 26.7 | Mean fluorescence intensity (RBC Erythrosol pH 7.3 3x wash, 0.2 mM PIC-1, 20 mM GSH+1.5 eq NaOH): 4.9 | Mean fluorescence intensity (RBC Erythrosol pH 7.3 3x wash, 0.2 mM PIC-1, 20 mM GSH+2 eq NaOH): 3.4 | Mean fluorescence intensity (RBC PBS pH 8 3x wash, 0.2 mM PIC-1, 2 mM GSH): 25 | Mean fluorescence intensity (RBC PBS pH 8 3x wash, 0.2 mM PIC-1, 20 mM GSH+0.9 eq NaOH): 7.2 | Mean fluorescence intensity (RBC PBS pH 8 3x wash, 0.2 mM PIC-1, 20 mM GSH+1.5 eq NaOH): 5.1 | Mean fluorescence intensity (RBC PBS pH 8 3x wash, 0.2 mM PIC-1, 20 mM GSH+2 eq NaOH): 5.1 | Mean fluorescence intensity (RBC in Erythrosol pH 7.3 no wash, 0.2 mM PIC-1, 2 mM GSH): 108 | Mean fluorescence intensity (RBC in Erythrosol pH 7.3 no wash, 0.2 mM PIC-1, 20 mM GSH+0.9 eq NaOH): 17.0 | Mean fluorescence intensity (RBC in Erythrosol pH 7.3 no wash, 0.2 mM PIC-1, 20 mM GSH+1.5 eq NaOH): 8.1 | Mean fluorescence intensity (RBC in Erythrosol pH 7.3 no wash, 0.2 mM PIC-1, 20 mM GSH+2 eq NaOH): 6.0 | mean fluorescence (Table 9A: 0.2 mM PIC-1+2 mM GSH, 0 eq NaOH, no delay (standard)): 114 | mean fluorescence (Table 9A: 5 mM Cys+2 eq NaOH, then 0.2 mM PIC-1 after 5 min): 8 | mean fluorescence (Table 9A: 5 mM Cys+2 eq NaOH, then 0.2 mM PIC-1 after 10 min): 10.8 | mean fluorescence (Table 9A: 5 mM Cys+2 eq NaOH, then 0.2 mM PIC-1 after 20 min): 8 | mean fluorescence (Table 9A: 10 mM Cys+2 eq NaOH, then 0.2 mM PIC-1 after 10 min): 2.9 | mean fluorescence (Table 9A: 15 mM Cys+2 eq NaOH, then 0.2 mM PIC-1 after 10 min): 1.9 | mean fluorescence (Table 9A: 20 mM Cys+2 eq NaOH, then 0.2 mM PIC-1 after 5 min): 1.9 | mean fluorescence (Table 9A: 20 mM Cys+2 eq NaOH, then 0.2 mM PIC-1 after 10 min): 1.9 | mean fluorescence (Table 9A: 20 mM Cys+2 eq NaOH, then 0.2 mM PIC-1 after 20 min): 2 | mean fluorescence (Table 9A: 20 mM GSH+2 eq NaOH, then 0.2 mM PIC-1 after 10 min): 2.6 | mean fluorescence (Table 9A: […] Cys+2 eq NaOH, then 0.2 mM PIC-1 after 10 min): 37 | mean fluorescence (Table 9B: 0.2 mM PIC-1+2 mM GSH, 0 eq NaOH, no delay (standard)): 160 and 151 and 182 | mean fluorescence (Table 9B: 5 mM Cys+1 eq NaOH, then 0.2 mM PIC-1 after 10 min): 19.28 | mean fluorescence (Table 9B: 5 mM Cys+2 eq NaOH, then 0.2 mM PIC-1 after 10 min): 14.1 | mean fluorescence (Table 9B: 5 mM Cys, 0 eq NaOH, then 0.2 mM PIC-1 after 10 min): 49 | mean fluorescence (Table 9B: 10 mM Cys+1 eq NaOH, then 0.2 mM PIC-1 after 10 min): 5.1 | mean fluorescence (Table 9B: 10 mM Cys+2 eq NaOH, then 0.2 mM PIC-1 after 10 min): 3.6 | mean fluorescence (Table 9B: 10 mM Cys, 0 eq NaOH, then 0.2 mM PIC-1 after 10 min): 11.6 | mean fluorescence (Table 9B: 20 mM Cys+1 eq NaOH, then 0.2 mM PIC-1 after 10 min): 2.5 | mean fluorescence (Table 9B: 20 mM Cys, 0 eq NaOH, then 0.2 mM PIC-1 after 10 min): 4.3 | mean fluorescence (Table 9B: 20 mM GSH+2 eq NaOH, then 0.2 mM PIC-1 after 10 min): 6.06 and 5.62 and 5.6 | mean fluorescence (Table 9B: […] Cys+1 eq NaOH, then 0.2 mM PIC-1 after 10 min): 49.5 | mean fluorescence (Table 9B: […] Cys+2 eq NaOH, then 0.2 mM PIC-1 after 10 min): 49 | mean fluorescence (Table 9B: […] Cys, 0 eq NaOH, then 0.2 mM PIC-1 after 10 min): 44 | mean fluorescence (Table 11C: 2 mM GSH, 1 eq. base, then 0.2 mM PIC-1): 208.05 | mean fluorescence (Table 11C: 2 mM GSH, 2 eq. base, then 0.2 mM PIC-1): 160.37 | mean fluorescence (Table 11C: 2 mM GSH, no added base, then 0.2 mM PIC-1): 179.17 | mean fluorescence (Table 11C: 5 mM GSH, 1 eq. base, then 0.2 mM PIC-1): 87.6 | mean fluorescence (Table 11C: 5 mM GSH, 2 eq. base, then 0.2 mM PIC-1): 67.56 | mean fluorescence (Table 11C: 5 mM GSH, no added base, then 0.2 mM PIC-1): 95.57 | mean fluorescence (Table 11C: 10 mM GSH, 1 eq. base, then 0.2 mM PIC-1): 47.18 | mean fluorescence (Table 11C: 10 mM GSH, 2 eq. base, then 0.2 mM PIC-1): 27.45 | mean fluorescence (Table 11C: 10 mM GSH, no added base, then 0.2 mM PIC-1): 88.21 | mean fluorescence (Table 11C: 20 mM GSH, 1 eq. base, then 0.2 mM PIC-1): 29.97 | mean fluorescence (Table 11C: 20 mM GSH, 2 eq. base, then 0.2 mM PIC-1): 13.37 | mean fluorescence (Table 11C: 20 mM GSH, no added base, then 0.2 mM PIC-1): 187.74 | mean fluorescence (Table 11C: co-addition std., 2 mM acidic glutathione with 0.2 mM PIC-1): 144.33
